# Test results published in US8093275B2, “Oxazolone and pyrrolidinone-substituted pryidine amides as P2X3 and P2X2/3 antagonists” (Roche Palo Alto LLC, priority 2009, dated 2012).
# What was measured:
# rat P2X3 receptor = target: T1, rat P2X3 receptor (Rattus norvegicus, UniProt P49654); test: P2X3 FLIPR (Fluorometric Imaging Plate Reader) assay; type: cell-based; settings: CHO-K1 cells transfected with rat P2X3; agonist α,β-meATP 1 μM; FLIPR calcium fluorescence; read-out: pKi P2X3 (converted)
# T1 construct: expressed in transfected cells; host or cells: CHO-K1
# T1 sequence (P49654 1-397): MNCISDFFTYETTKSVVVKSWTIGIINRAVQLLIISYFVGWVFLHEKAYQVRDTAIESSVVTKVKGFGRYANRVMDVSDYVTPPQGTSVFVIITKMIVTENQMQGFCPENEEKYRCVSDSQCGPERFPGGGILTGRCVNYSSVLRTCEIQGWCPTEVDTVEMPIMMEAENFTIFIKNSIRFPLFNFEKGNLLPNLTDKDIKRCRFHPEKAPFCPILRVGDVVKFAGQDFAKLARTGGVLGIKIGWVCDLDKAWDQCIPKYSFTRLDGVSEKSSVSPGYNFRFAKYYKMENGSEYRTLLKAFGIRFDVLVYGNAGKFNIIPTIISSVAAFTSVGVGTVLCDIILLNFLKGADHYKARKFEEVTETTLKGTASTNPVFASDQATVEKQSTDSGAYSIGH
# Method: (§1) CHO-K1 cells were transfected with cloned rat P2X3 or human P2X2/3 receptor subunits and passaged in flasks. 18-24 hours before the FLIPR experiment, cells were released from their flasks, centrifuged, and resuspended in nutrient medium at 2.5×10^5 cells/ml. The cells were aliquoted into black-walled 96-well plates at a density of 50,000 cells/well and incubated overnight in 5% CO2 at 37° C. On the day of the experiment, cells were washed in FLIPR buffer (calcium- and magnesium-free Hank's balanced salt solution, 10 mM HEPES, 2 mM CaCl2, 2.5 mM probenecid; FB). Each well received 100 μl FB and 100 μl of the fluorescent dye Fluo-3 AM [2 μM final conc.]. After a 1 hour dye loading incubation at 37° C., the cells were washed 4 times with FB, and a final 75 μl/well FB was left in each well.
# (§2) Test compounds (dissolved in DMSO at 10 mM and serially diluted with FB) or vehicle were added to each well (25 μl of a 4× solution) and allowed to equilibrate for 20 minutes at room temperature. The plates were then placed in the FLIPR and a baseline fluorescence measurement (excitation at 488 nm and emission at 510-570 nm) was obtained for 10 seconds before a 100 μl/well agonist or vehicle addition. The agonist was a 2× solution of α,β-meATP producing a final concentration of 1 μM (P2X3) or 5 μM (P2X2/3). Fluorescence was measured for an additional 2 minutes at 1 second intervals after agonist addition. A final addition of ionomycin (5 μM, final concentration) was made to each well of the FLIPR test plate to establish cell viability and maximum fluorescence of dye-bound cytosolic calcium. Peak fluorescence in response to the addition of α,β-meATP (in the absence and presence of test compounds) was measured and inhibition curves generated using nonlinear regression. PPADS, a standard P2X antagonist, was used as a positive control.
# human P2X2/3 receptor = target: T2, human P2X2/3 receptor (Homo sapiens, UniProt P56373+Q9UBL9); test: P2X2/3 FLIPR (Fluorometric Imaging Plate Reader) assay; type: cell-based; settings: CHO-K1 cells transfected with human P2X2/3; agonist α,β-meATP 5 μM; FLIPR calcium fluorescence; read-out: pKi P2X2/3 (converted)
# T2 construct: expressed in transfected cells; host or cells: CHO-K1
# T2 sequence (Q9UBL9 1-471): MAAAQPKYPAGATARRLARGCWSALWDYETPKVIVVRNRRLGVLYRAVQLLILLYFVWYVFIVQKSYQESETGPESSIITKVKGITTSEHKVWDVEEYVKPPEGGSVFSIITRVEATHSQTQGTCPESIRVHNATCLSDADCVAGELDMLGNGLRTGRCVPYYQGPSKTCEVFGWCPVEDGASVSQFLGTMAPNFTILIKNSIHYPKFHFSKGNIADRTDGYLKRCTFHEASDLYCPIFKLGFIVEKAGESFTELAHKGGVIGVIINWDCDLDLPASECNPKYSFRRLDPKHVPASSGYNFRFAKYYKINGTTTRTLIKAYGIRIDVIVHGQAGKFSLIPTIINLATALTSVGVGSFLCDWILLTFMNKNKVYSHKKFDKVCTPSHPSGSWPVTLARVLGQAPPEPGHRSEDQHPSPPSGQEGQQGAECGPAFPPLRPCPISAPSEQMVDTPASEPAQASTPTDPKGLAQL
# T2 sequence (P56373 1-397): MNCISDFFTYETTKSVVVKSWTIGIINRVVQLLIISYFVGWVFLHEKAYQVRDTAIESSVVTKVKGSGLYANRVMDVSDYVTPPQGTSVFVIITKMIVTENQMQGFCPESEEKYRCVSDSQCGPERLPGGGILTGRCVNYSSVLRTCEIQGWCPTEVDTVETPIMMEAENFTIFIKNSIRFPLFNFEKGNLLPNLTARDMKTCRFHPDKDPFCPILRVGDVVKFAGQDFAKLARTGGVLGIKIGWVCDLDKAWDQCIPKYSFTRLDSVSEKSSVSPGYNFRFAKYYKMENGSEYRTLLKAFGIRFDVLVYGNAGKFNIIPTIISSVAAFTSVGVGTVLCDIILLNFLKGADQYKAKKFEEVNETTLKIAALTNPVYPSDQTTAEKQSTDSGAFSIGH
# Method: as §1, §2
Compound,Ki (rat P2X3 receptor),Ki (human P2X2/3 receptor)
"Cc1ccc(-c2cc(C(=O)NC(C)c3cnccn3)cc(-n3c(=O)oc4ccccc43)c2)nc1 (stereo not shown) [Compound 2, 3-(5-Methyl-pyridin-2-yl)-5-(2-oxo-benzooxazol-3-yl)-N-(1-pyrazin-2-yl-ethyl)-benzamide]",3.09 nM,28.2 nM
"Cc1ccc(-c2cc(C(=O)NC(C)c3cnccn3)cc(N3C(=O)OC[C@H]3C(C)C)c2)c(F)c1 (stereo partly drawn) [Compound 47, 2′-Fluoro-5-((R)-4-isopropyl-2-oxo-oxazolidin-3-yl)-4′-methyl-biphenyl-3-carboxylic acid (1-pyrazin-2-yl-ethyl)-amide]",12.6 nM,44.7 nM
"Cc1ccc(-c2cc(C(=O)NCc3ncc(C)cn3)cc(-n3c(=O)oc4ccccc43)c2)nc1 [Compound 32, 3-(5-Methyl-pyridin-2-yl)-N-(5-methyl-pyrimidin-2-ylmethyl)-5-(2-oxo-benzooxazol-3-yl)-benzamide]",4.57 nM,24.5 nM
"Cc1ccc(-c2cc(C(=O)NC3CC3)cc(N3C(=O)OC[C@H]3C(C)C)c2)nc1 [Compound 8, N-Cyclopropyl-3-((R)-4-isopropyl-2-oxo-oxazolidin-3-yl)-5-(5-methyl-pyridin-2-yl)-benzamide]",2.69 nM,132 nM

# The next lines start with the values.
Ki (rat P2X3 receptor),Ki (human P2X2/3 receptor),Compound
7.24 nM,123 nM,"Cc1ccc(-c2cc(C(=O)NCc3cnc(C)cn3)cc(N3C(=O)Cc4ccccc43)c2)cc1 [Compound 53, 4′-Methyl-5-(2-oxo-2,3-dihydro-indol-1-yl)-biphenyl-3-carboxylic acid (5-methyl-pyrazin-2-ylmethyl)-amide]"
7.41 nM,117 nM,"Cc1ccc(-c2cc(C(=O)NC(C)c3cnccn3)cc(N3C(=O)Cc4ccccc43)c2)nc1 (stereo not shown) [Compound 6, 3-(5-Methyl-pyridin-2-yl)-5-(2-oxo-2,3-dihydro-indol-1-yl)-N-(1-pyrazin-2-yl-ethyl)-benzamide]"
7.76 nM,21.4 nM,"Cc1ccc(-c2cc(C(=O)NCc3ccc(C)nn3)cc(-n3c(=O)oc4ccccc43)c2)nc1 [Compound 13, N-(6-Methyl-pyridazin-3-ylmethyl)-3-(5-methyl-pyridin-2-yl)-5-(2-oxo-benzooxazol-3-yl)-benzamide]"
6.17 nM,13.8 nM,"Cc1ccc(-c2cc(C(=O)NCc3cnc(C)nc3)cc(-n3c(=O)oc4ccccc43)c2)nc1 [Compound 33, 3-(5-Methyl-pyridin-2-yl)-N-(2-methyl-pyrimidin-5-ylmethyl)-5-(2-oxo-benzooxazol-3-yl)-benzamide]"
